In the NIST ThermoML archive (doi:10.1021/je030130y):
Numbers after ± are expanded uncertainties.

Test: xn = mol fraction of the nth substance listed
Conditions: 101.3 kPa, Liquid; for viscosity: Capillary tube (Ostwald / Ubbelohde) method; for mass density: Pycnometric method

Clc1ccccc1 [chlorobenzene] + CN(C)C=O
Conditions | mass density, 298.15 K [kg/m3] | mass density, 303.15 K [kg/m3] | mass density, 308.15 K [kg/m3] | mass density, 313.15 K [kg/m3] | viscosity, 298.15 K [mPa·s] | viscosity, 303.15 K [mPa·s] | viscosity, 308.15 K [mPa·s] | viscosity, 313.15 K [mPa·s]
x2 = 0 | 1100.9 ± 0.4 | 1095.8 ± 0.4 | 1090.8 ± 0.4 | 1085.1 ± 0.4 | 0.756 ± 0.006 | 0.714 ± 0.006 | 0.673 ± 0.005 | 0.635 ± 0.005
x2 = 0.1473 | 1083.5 ± 0.4 | 1078.5 ± 0.4 | 1073.6 ± 0.4 | 1068.1 ± 0.4 | 0.79 ± 0.006 | 0.745 ± 0.006 | 0.701 ± 0.005 | 0.661 ± 0.005
x2 = 0.2093 | 1076.3 ± 0.4 | 1071.3 ± 0.4 | 1066.5 ± 0.4 | 1063.1 ± 4 | 0.804 ± 0.006 | 0.757 ± 0.006 | 0.712 ± 0.006 | 0.671 ± 0.005
x2 = 0.2762 | 1068.1 ± 0.4 | 1063.2 ± 0.4 | 1058.3 ± 0.4 | 1052.9 ± 0.4 | 0.818 ± 0.006 | 0.77 ± 0.006 | 0.723 ± 0.006 | 0.681 ± 0.005
x2 = 0.4032 | 1051.2 ± 0.4 | 1046.3 ± 0.4 | 1041.5 ± 0.4 | 1036.3 ± 0.4 | 0.838 ± 0.006 | 0.788 ± 0.006 | 0.739 ± 0.006 | 0.696 ± 0.005
x2 = 0.4661 | 1042.2 ± 0.4 | 1037.3 ± 0.4 | 1032.5 ± 0.4 | 1027.2 ± 0.4 | 0.847 ± 0.006 | 0.795 ± 0.006 | 0.745 ± 0.006 | 0.702 ± 0.005
x2 = 0.6084 | 1020.2 ± 0.4 | 1015.4 ± 0.4 | 1010.6 ± 0.4 | 1005.4 ± 0.4 | 0.862 ± 0.006 | 0.808 ± 0.006 | 0.757 ± 0.006 | 0.714 ± 0.006
x2 = 0.7009 | 1003.8 ± 0.4 | 999.1 ± 0.4 | 994.5 ± 0.4 | 989.4 ± 0.4 | 0.856 ± 0.006 | 0.803 ± 0.006 | 0.752 ± 0.006 | 0.709 ± 0.005
x2 = 0.7842 | 988.1 ± 0.4 | 983.4 ± 0.4 | 978.7 ± 0.4 | 973.7 ± 0.4 | 0.846 ± 0.006 | 0.794 ± 0.006 | 0.744 ± 0.006 | 0.702 ± 0.005
x2 = 0.9351 | 957.7 ± 0.3 | 953 ± 0.3 | 948.3 ± 0.4 | 943.4 ± 0.4 | 0.818 ± 0.006 | 0.769 ± 0.006 | 0.721 ± 0.006 | 0.683 ± 0.005

Clc1ccccc1 [chlorobenzene] + c1ccccc1
Conditions | mass density, 298.15 K [kg/m3] | mass density, 303.15 K [kg/m3] | mass density, 308.15 K [kg/m3] | mass density, 313.15 K [kg/m3] | viscosity, 298.15 K [mPa·s] | viscosity, 303.15 K [mPa·s] | viscosity, 308.15 K [mPa·s] | viscosity, 313.15 K [mPa·s]
x2 = 0 | 1100.9 ± 0.4 | 1095.8 ± 0.4 | 1090.8 ± 0.4 | 1085.1 ± 0.4 | 0.756 ± 0.006 | 0.714 ± 0.006 | 0.673 ± 0.005 | 0.635 ± 0.005
x2 = 0.1206 | 1076.5 ± 0.4 | 1071.4 ± 0.4 | 1066.4 ± 0.4 | 1060.7 ± 0.4 | 0.744 ± 0.006 | 0.699 ± 0.006 | 0.656 ± 0.005 | 0.618 ± 0.005
x2 = 0.2642 | 1046.5 ± 0.4 | 1041.4 ± 0.4 | 1036.3 ± 0.4 | 1030.7 ± 0.4 | 0.727 ± 0.006 | 0.682 ± 0.006 | 0.639 ± 0.005 | 0.601 ± 0.005
x2 = 0.3982 | 1017.5 ± 0.4 | 1012.4 ± 0.4 | 1007.3 ± 0.4 | 1001.7 ± 0.5 | 0.711 ± 0.006 | 0.667 ± 0.006 | 0.623 ± 0.005 | 0.585 ± 0.005
x2 = 0.4644 | 1002.8 ± 0.4 | 997.7 ± 0.5 | 992.6 ± 0.5 | 987 ± 0.5 | 0.702 ± 0.006 | 0.659 ± 0.006 | 0.616 ± 0.005 | 0.578 ± 0.005
x2 = 0.5321 | 987.7 ± 0.5 | 982.5 ± 0.5 | 977.3 ± 0.5 | 971.7 ± 0.5 | 0.694 ± 0.006 | 0.65 ± 0.006 | 0.607 ± 0.005 | 0.57 ± 0.005
x2 = 0.6074 | 970.4 ± 0.5 | 965.2 ± 0.5 | 960 ± 0.5 | 954.5 ± 0.5 | 0.683 ± 0.006 | 0.64 ± 0.006 | 0.598 ± 0.005 | 0.561 ± 0.005
x2 = 0.7069 | 946.8 ± 0.5 | 941.6 ± 0.5 | 936.4 ± 0.5 | 930.9 ± 0.5 | 0.665 ± 0.006 | 0.623 ± 0.006 | 0.582 ± 0.005 | 0.545 ± 0.005
x2 = 0.8131 | 920.9 ± 0.5 | 915.7 ± 0.5 | 910.5 ± 0.5 | 905 ± 0.5 | 0.643 ± 0.006 | 0.601 ± 0.005 | 0.562 ± 0.005 | 0.527 ± 0.005
x2 = 0.9162 | 895 ± 0.5 | 889.8 ± 0.5 | 884.6 ± 0.5 | 879.2 ± 0.5 | 0.621 ± 0.006 | 0.583 ± 0.005 | 0.545 ± 0.005 | 0.512 ± 0.005

CN(C)C=O [dimethylformamide] + c1ccccc1
Conditions | mass density, 298.15 K [kg/m3] | mass density, 303.15 K [kg/m3] | mass density, 308.15 K [kg/m3] | mass density, 313.15 K [kg/m3] | viscosity, 298.15 K [mPa·s] | viscosity, 303.15 K [mPa·s] | viscosity, 308.15 K [mPa·s] | viscosity, 313.15 K [mPa·s]
x1 = 0.1076 | 881.1 ± 0.5 | 876 ± 0.5 | 870.8 ± 0.5 | 865.4 ± 0.5 | 0.622 ± 0.006 | 0.585 ± 0.005 | 0.547 ± 0.005 | 0.515 ± 0.005
x1 = 0.2069 | 888.4 ± 0.5 | 883.5 ± 0.5 | 878.4 ± 0.5 | 873.3 ± 0.5 | 0.641 ± 0.006 | 0.603 ± 0.005 | 0.564 ± 0.005 | 0.531 ± 0.005
x1 = 0.3124 | 896.3 ± 0.4 | 891.4 ± 0.4 | 886.5 ± 0.4 | 881.5 ± 0.5 | 0.662 ± 0.006 | 0.622 ± 0.006 | 0.582 ± 0.005 | 0.549 ± 0.005
x1 = 0.4132 | 904.2 ± 0.4 | 899.4 ± 0.4 | 894.6 ± 0.4 | 889.6 ± 0.4 | 0.688 ± 0.006 | 0.645 ± 0.006 | 0.602 ± 0.005 | 0.567 ± 0.005
x1 = 0.5148 | 911.7 ± 0.4 | 906.9 ± 0.4 | 902.2 ± 0.4 | 897.2 ± 0.4 | 0.712 ± 0.006 | 0.67 ± 0.006 | 0.627 ± 0.005 | 0.592 ± 0.005
x1 = 0.6145 | 918.6 ± 0.4 | 913.7 ± 0.4 | 908.9 ± 0.4 | 904 ± 0.4 | 0.731 ± 0.006 | 0.688 ± 0.006 | 0.644 ± 0.005 | 0.608 ± 0.005
x1 = 0.7093 | 925 ± 0.4 | 920.2 ± 0.4 | 915.4 ± 0.4 | 910.3 ± 0.4 | 0.747 ± 0.006 | 0.703 ± 0.006 | 0.659 ± 0.005 | 0.622 ± 0.005
x1 = 0.8084 | 931.6 ± 0.4 | 927 ± 0.4 | 922.2 ± 0.4 | 917.2 ± 0.4 | 0.763 ± 0.006 | 0.718 ± 0.006 | 0.673 ± 0.005 | 0.636 ± 0.005
x1 = 0.8998 | 936.8 ± 0.4 | 932.1 ± 0.4 | 927.4 ± 0.4 | 922.5 ± 0.4 | 0.78 ± 0.006 | 0.734 ± 0.006 | 0.689 ± 0.005 | 0.651 ± 0.005
x1 = 1 | 944.5 ± 0.3 | 939.8 ± 0.3 | 935.1 ± 0.3 | 930.2 ± 0.4 | 0.803 ± 0.006 | 0.756 ± 0.006 | 0.71 ± 0.005 | 0.673 ± 0.005
